Numbers after ± are expanded uncertainties.
Assays:
[1] = refractive index (Na D-line) (dimensionless); conditions: 298.15 K; 101.33 kPa; Liquid; Standard Abbe refractometry
[2] = 298.15 K; 101.33 kPa; Liquid

c1ccccc1 [benzene]
refractive index [1]: 1.49764 ± 0.00054
mass density [2]: 873.57 ± 0.96 kg/m3

CCO [ethanol]
refractive index [1]: 1.35928 ± 0.00052
mass density [2]: 785.27 ± 0.98 kg/m3
